One block for each molecule: values may come before it. {NH2C3} = aminopropyl group attached via phosphodiester linkage
How the values were obtained:
[1] = cited from earlier work
[2] = in vivo; cited from earlier work
[3] = thorium(IV) complexes; cited from earlier work
[4] = Gel electrophoresis mobility shift assay of complexation with metal cations
Source text: LUMI4® is an isophthalamide class macrocyclic chelate that selectively coordinates to metal cations including those of the lanthanide series. For use in certain applications, such as acting as a bifunctional chelating agent to attach a radioisotope to a site-directing molecule, it is necessary that the chelate be able to coordinate to the metal ion of interest in a kinetically facile and thermodynamically stable manner. […] In this experiment, a conjugate of LUMI4® with a small (18 base length) DNA oligomer was treated with a solution containing a metal cation. The electrophoretic mobility of the conjugate on a polyacrylamide gel was then compared with that of the conjugate which was not exposed to the solution of metal cation. […] To provide an additional comparison, the gel electrophoretic mobility of the DNA oligomer that was not conjugated to LUMI4® was measured with and without exposure to the metal cation solution under identical conditions.
In particular, a solution of DNA oligomer (6 μL, 5 μM, all concentrations final) was mixed with a solution of metal cation (2 μL, 250 μM) or an equal volume of water. The solution was incubated at 55° C. for five minutes, whereupon the solutions were allowed to cool to ambient temperature and a solution of 50% formamide (7 μL) was added. The resulting solution was again heated to 55° C. for five minutes and then cooled to −20° C. briefly. […]

Molecule: O=C(NCCCN(CCCCN(CCCNC(=O)c1cccc(=O)n1O)C(=O)c1cccc(=O)n1O)C(=O)c1cccc(=O)n1O)c1cccc(=O)n1O [3,4,3-LI(1,2-HOPO)]
effective dosage ([1]; in vivo): 0.01 to 0.1 µmol/kg | removal of Th(IV), Pu(IV) or Am(III) from the wound site and body compared with CaNa3-DTPA ([1]; injected ip or infiltrated into a wound): much more effective | oral activity ([1]; oral): useful oral activity | removal of injected or inhaled Pu(IV) and Am(III) compared with CaNa3-DTPA ([1]; rodents, injected, infused or oral): removes more | toxicity at effective dosage [2]: acceptably low toxicity

Molecule: O=C(O)CN(CCN(CC(=O)O)CC(=O)O)CCN(CC(=O)O)CC(=O)O [DTPA]
Log K1 [3]: 30.34

stability of metal complex upon electrophoresis in the presence of the competing chelate EDTA ([4]; LUMI4 conjugated to a DNA oligomer): forms a stable complex
Molecule: NC(=O)CCCC(=O)NCCCCC1CN2CCNC(=O)c3cccc(c3O)C(=O)NCCN(CCNC(=O)c3cccc(c3O)C(=O)N1)CCN1CCNC(=O)c3cccc(c3O)C(=O)NCCN(CCNC(=O)c3cccc(c3O)C(=O)NCC1)CC2 (centres unmarked) [LUMI4®]

Molecule: unmodified oligonucleotide: DNA 18-base oligonucleotide 5′-AAGGTCATCCATGACAAC-3′ (SEQ ID NO: 1) with 5′-aminopropyl group (DNA, 5' {NH2C3}, backbone not given here)
gel mobility following treatment with the metal cation solution ([4]; 20% polyacrylamide gel, 8 M urea, running buffer with 2 mM EDTA): unaffected

— US20200024234A1, “RADIOPHARMACEUTICAL COMPLEXES” (LUMIPHORE, INC., priority 2009, published 2020)
